Assay results published in US20230392217A1 (priority 2020, published 2023).
Like-named read-outs stand apart in the source and are kept apart here.

What was measured:
[1] = tested on: methicillin-sensitive S. aureus (MSSA); conditions: cited from earlier work
[2] = tested on: methicillin-resistant S. aureus (MRSA); conditions: cited from earlier work
[3] = tested on: SosA protein of Staphylococcus aureus; assay: SosA expression of Staphylococcus aureus according to concentration of ciprofloxacin, detected using SosA antibodies; format: cell-based; conditions: detected using the SosA antibody, FIG. 10
Experimental: Pellets of microorganisms were suspended with 1 ml of DPBS containing sosA-specific antibodies that were diluted at 1:2,000 and cultured overnight at 37° C., 180 rpm. Thereafter, centrifugation was performed at 13,000 rpm for 1 minute, secondary antibodies (anti-mouse FITC, Abcam) diluted at 1:500 were treated, and culture was performed at 37° C., 180 rpm for 3 hours. 100 ul of a sample was transferred to a 12-well plate containing an 18 mm cover glass and centrifuged at 1,100 rpm for 1 minute, and the bacteria were attached to a cover glass. The plates were washed three times with DPBS, and centrifugation was performed at 1,100 rpm for 1 minute. The cover glass was attached to the slide, and then imaging was performed using the Zeiss LSM 5 live confocal microscope. Images were acquired using Plan-Apochromat 63×1.4 NA objectives, and analysis was performed to detect GFP fluorescence by setting to 488 nm for excitation wavelength and 513±12 nm for emission wavelength.
In addition, each sample was transferred to a 96-well plate, and absorbance measurement and fluorescence analysis were performed using Ensight (PerkinElmer). In the case of green fluorescence, the excitation wavelength was at 488 nm and the emission wavelength was at 528 nm, and in the case of red fluorescence, the excitation wavelength was at 558 nm and the emission wavelength was at 615 nm. […]

O=C(O)c1cn(C2CC2)c2cc(N3CCNCC3)c(F)cc2c1=O [Ciprofloxacin, ciprofloxacin]
antibiotic susceptibility/resistance ([1]; strain MSSA #1): Susceptible | antibiotic susceptibility/resistance ([1]; strain MSSA #2): Susceptible | antibiotic susceptibility/resistance ([1]; strain MSSA #3): Susceptible | antibiotic susceptibility/resistance ([1]; strain MSSA #4): Susceptible | antibiotic susceptibility/resistance ([1]; strain MSSA #5): Susceptible | antibiotic susceptibility/resistance ([1]; strain MSSA #6): Susceptible | antibiotic susceptibility/resistance ([1]; strain MSSA #7): Resistant | antibiotic susceptibility/resistance ([1]; strain MSSA #8): Resistant | antibiotic susceptibility/resistance ([1]; strain MSSA #9): Susceptible | antibiotic susceptibility/resistance ([1]; strain MSSA #10): Susceptible | antibiotic susceptibility/resistance ([1]; strain MSSA #11): Susceptible | antibiotic susceptibility/resistance ([1]; strain MSSA #12): Susceptible | antibiotic susceptibility/resistance ([1]; strain MSSA #13): Susceptible | antibiotic susceptibility/resistance ([1]; strain MSSA #14): Susceptible | antibiotic susceptibility/resistance ([1]; strain MSSA #15): Susceptible | antibiotic susceptibility/resistance ([1]; strain MSSA #16): Susceptible | antibiotic susceptibility/resistance ([1]; strain MSSA #17): Susceptible | antibiotic susceptibility/resistance ([1]; strain MSSA #18): Susceptible | antibiotic susceptibility/resistance ([1]; strain MSSA #19): Susceptible | antibiotic susceptibility/resistance ([1]; strain MSSA #20): Resistant | antibiotic susceptibility/resistance ([2]; strain MRSA #1): Resistant | antibiotic susceptibility/resistance ([2]; strain MRSA #2): Resistant | antibiotic susceptibility/resistance ([2]; strain MRSA #3): Susceptible | antibiotic susceptibility/resistance ([2]; strain MRSA #4): Susceptible | antibiotic susceptibility/resistance ([2]; strain MRSA #5): Resistant | antibiotic susceptibility/resistance ([2]; strain MRSA #6): Resistant | antibiotic susceptibility/resistance ([2]; strain MRSA #7): Resistant | antibiotic susceptibility/resistance ([2]; strain MRSA #8): Resistant | antibiotic susceptibility/resistance ([2]; strain MRSA #9): Resistant | antibiotic susceptibility/resistance ([2]; strain MRSA #10): Resistant | antibiotic susceptibility/resistance ([2]; strain MRSA #11): Resistant | antibiotic susceptibility/resistance ([2]; strain MRSA #12): Resistant | antibiotic susceptibility/resistance ([2]; strain MRSA #13): Resistant | antibiotic susceptibility/resistance ([2]; strain MRSA #14): Resistant | antibiotic susceptibility/resistance ([2]; strain MRSA #15): Resistant | antibiotic susceptibility/resistance ([2]; strain MRSA #16): Resistant | antibiotic susceptibility/resistance ([2]; strain MRSA #17): Resistant | antibiotic susceptibility/resistance ([2]; strain MRSA #18): Susceptible | antibiotic susceptibility/resistance ([2]; strain MRSA #19): Resistant | antibiotic susceptibility/resistance ([2]; strain MRSA #20): Resistant | antibiotic susceptibility/resistance ([2]; strain MRSA #21): Resistant | antibiotic susceptibility/resistance ([2]; strain MRSA #22): Resistant | antibiotic susceptibility/resistance ([2]; strain MRSA #23): Resistant | antibiotic susceptibility/resistance ([2]; strain MRSA #24): Susceptible | antibiotic susceptibility/resistance ([2]; strain MRSA #25): Resistant | antibiotic susceptibility/resistance ([2]; strain MRSA #26): Susceptible | antibiotic susceptibility/resistance ([2]; strain MRSA #27): Susceptible | antibiotic susceptibility/resistance ([2]; strain MRSA #28): Resistant | antibiotic susceptibility/resistance ([2]; strain MRSA #29): Resistant | antibiotic susceptibility/resistance ([2]; strain MRSA #30): Resistant | expression of SosA [3]: increases with the increase in the administration concentration
